Experimental findings from US9802901B2, “Antibacterial 2H-indazole derivatives” (priority 2013, dated 2017) are described below.

In brackets after ≈: the same amount, converted by molar mass.

Holding throughout (assay): Bacterial growth minimal inhibitory concentration (broth microdilution, CLSI M7-A7)
The subject of assay [1] is E. coli ATCC25922. The assay is classed as cell-based, Escherichia coli. The note with it: cation-adjusted Mueller-Hinton Broth, microdilution, quinolone-sensitive strain; for MIC: Escherichia coli, ATCC25922, read-out: MIC for E. coli ATCC25922. As to the method: (§1) Minimal Inhibitory Concentrations (MICs; mg/L) were determined in cation-adjusted Mueller-Hinton Broth by a microdilution method following the description given in “Methods for Dilution Antimicrobial Susceptibility Tests for Bacteria that Grow Aerobically”, Approved standard, 7th ed., Clinical and Laboratory Standards Institute (CLSI) Document M7-A7, Wayne, Pa., USA (2006).
(§2) All Example compounds, except the compound of Example 62, were tested against several Gram-positive and Gram-negative bacteria. […] K. pneumoniae A-651 and Acinetobacter baumannii T6474 are multiply-resistant strains (in particular quinolone-resistant), while E. coli ATCC25922 and P. aeruginosa ATCC27853 are quinolone-sensitive strains.

Assay [2] concerns K. pneumoniae A-651. It is filed as cell-based, Klebsiella pneumoniae. The note with it: cation-adjusted Mueller-Hinton Broth, microdilution, multiply-resistant (quinolone-resistant) strain; for MIC: Klebsiella pneumoniae, A651, read-out: MIC for K. Pneumoniae A-651. As to the method:
as §1, §2

Assay [3] relates to Acinetobacter baumannii T6474. The assay is classed as cell-based. Conditions: cation-adjusted Mueller-Hinton Broth, microdilution, multiply-resistant (quinolone-resistant) strain; for MIC: Acinetobacter baumannii, T6474, read-out: MIC for A. Baumannii T6474. As to the method: as §1, §2
For assay [4], the system named is P. aeruginosa ATCC27853. The assay is classed as cell-based, Pseudomonas aeruginosa. The note with it: cation-adjusted Mueller-Hinton Broth, microdilution, quinolone-sensitive strain; for MIC: Pseudomonas aeruginosa, ATCC27853, read-out: MIC for P. aeruginosa ATCC27853. On the procedure:
as §1, §2

Regarding `C[C@@](CCn1cc2cc(C#CC#C[C@H](O)CO)ccc2n1)(C(=O)NO)S(C)(=O)=O` [Example 55, (R)-4-(5-((S)-5,6-dihydroxyhexa-1,3-diyn-1-yl)-2H-indazol-2-yl)-N-hydroxy-2-methyl-2-(methylsulfonyl)butanamide], the MIC in assay [1] was 2 µg/mL (≈ 4.77 µM); in assay [2] it was 4 µg/mL (≈ 9.54 µM); in assay [3] it was more than 32 µg/mL; in assay [4], 2 µg/mL (≈ 4.77 µM).
In the case of `C[C@@](CCn1cc2cc(C#Cc3cncnc3)ccc2n1)(C(=O)NO)S(C)(=O)=O` [Example 59, (R)—N-hydroxy-2-methyl-2-(methylsulfonyl)-4-(5-(pyrimidin-5-ylethynyl)-2H-indazol-2-yl)butanamide], the MIC in assay [1] was determined as 4 µg/mL (≈ 9.67 µM); in assay [2], 8 µg/mL (≈ 19.3 µM); in assay [3], 8 µg/mL (≈ 19.3 µM); in assay [4], 8 µg/mL (≈ 19.3 µM).
As for `CC(CCn1cc2cc(-c3ccc(OCCN4CCOCC4)cc3)ccc2n1)(C(=O)NO)S(C)(=O)=O.O=CO` (racemic) [RE2, (RS)—N-hydroxy-2-methylsulfonyl-2-methyl-4-{5-[4-(2-morpholin-4-yl-ethoxy)-phenyl]-indazol-2-yl}-butanamide formic acid salt], the MIC in assay [1] is 1 µg/mL; in assay [2], 1 µg/mL; in assay [3], 4 µg/mL; in assay [4], 4 µg/mL.
For the compound “(R)-4-(5-(5-amino-5-methylhexa-1,3-diyn-1-yl)-2H-indazol-2-yl)-N-hydroxy-2-methyl-2-(methylsulfonyl)butanamide [Example 24]”, the “MIC for E. coli ATCC25922” value in assay [1] stood at 0.5 µg/mL. Besides, in assay [2], the “MIC for K. Pneumoniae A-651” value was determined as 1 µg/mL. Moreover, the “MIC for A. Baumannii T6474” value in assay [3] is more than 32 µg/mL. Further, the “MIC for P. aeruginosa ATCC27853” value in assay [4] turned out to be 0.5 µg/mL.
For `COc1ccc(-c2ccc3nn(CC[C@](C)(C(=O)NO)S(C)(=O)=O)cc3c2F)cc1` [Example 4, (R)-4-[4-fluoro-5-(4-methoxy-phenyl)-indazol-2-yl]-N-hydroxy-2-methylsulfonyl-2-methyl-butanamide], the MIC amounted to 0.125 µg/mL (≈ 0.287 µM) in assay [1], 0.5 µg/mL (≈ 1.15 µM) in assay [2], 2 µg/mL (≈ 4.59 µM) in assay [3] and 4 µg/mL (≈ 9.19 µM) in assay [4].
Regarding `C[C@@](CCn1cc2cc(C#CC#CCC3(O)COC3)ccc2n1)(C(=O)NO)S(C)(=O)=O` [Example 80, (R)—N-hydroxy-4-(5-(5-(3-hydroxyoxetan-3-yl)penta-1,3-diyn-1-yl)-2H-indazol-2-yl)-2-methyl-2-(methylsulfonyl)butanamide], the MIC in assay [1] was 0.5 µg/mL (≈ 1.12 µM); in assay [2], 1 µg/mL (≈ 2.24 µM); in assay [3], 32 µg/mL (≈ 71.8 µM); in assay [4], 1 µg/mL (≈ 2.24 µM).
As to `C[C@@](CCn1cc2cc(C#Cc3ccc([C@H]4C[C@@H]4CO)cc3)ccc2n1)(C(=O)NO)S(C)(=O)=O` [Example 42, (R)—N-hydroxy-4-(5-((4-((1S,2S)-2-(hydroxymethyl)cyclopropyl)phenyl)ethynyl)-2H-indazol-2-yl)-2-methyl-2-(methylsulfonyl)butanamide], the MIC in assay [1] is 0.063 µg/mL (≈ 0.131 µM); in assay [2], 0.063 µg/mL (≈ 0.131 µM); in assay [3] it was 0.125 µg/mL (≈ 0.26 µM); in assay [4], 0.25 µg/mL (≈ 0.519 µM).
In the case of `C[C@@](CCn1cc2cc(C#CC#C[C@H]3C[C@]3(F)CO)ccc2n1)(C(=O)NO)S(C)(=O)=O` [Example 77, (R)-4-(5-(((1R,2R)-2-fluoro-2-(hydroxymethyl)cyclopropyl)buta-1,3-diyn-1-yl)-2H-indazol-2-yl)-N-hydroxy-2-methyl-2-(methylsulfonyl)butanamide], the MIC is 0.125 µg/mL (≈ 0.279 µM) in assay [1], 0.25 µg/mL (≈ 0.559 µM) in assay [2], 4 µg/mL (≈ 8.94 µM) in assay [3] and 0.25 µg/mL (≈ 0.559 µM) in assay [4].
As for `C[C@@](CCn1cc2cc(C#Cc3ccc(N)cc3)ccc2n1)(C(=O)NO)S(C)(=O)=O` [Example 19, (R)-4-[5-(4-amino-phenylethynyl)-indazol-2-yl]-N-hydroxy-2-methylsulfonyl-2-methyl-butanamide], the MIC in assay [1] came to 0.063 µg/mL (≈ 0.148 µM); in assay [2], 0.125 µg/mL (≈ 0.293 µM); in assay [3] it was 0.5 µg/mL (≈ 1.17 µM); in assay [4], 2 µg/mL (≈ 4.69 µM).
For the compound `C[C@@](CCn1cc2cc(C#CC#C[C@@]3(F)C[C@@H]3CO)ccc2n1)(C(=O)NO)S(C)(=O)=O` [Example 74, (R)-4-(5-(((1R,2R)-1-fluoro-2-(hydroxymethyl)cyclopropyl)buta-1,3-diyn-1-yl)-2H-indazol-2-yl)-N-hydroxy-2-methyl-2-(methylsulfonyl)butanamide], the minimal inhibitory concentration (MIC) in assay [1] is 0.125 µg/mL (≈ 0.279 µM); in assay [2], 0.125 µg/mL (≈ 0.279 µM); in assay [3], 4 µg/mL (≈ 8.94 µM); in assay [4] it was 0.5 µg/mL (≈ 1.12 µM).
Turning to `C[C@@]1(C#CC#Cc2ccc3nn(CC[C@](C)(C(=O)NO)S(C)(=O)=O)cc3c2)C[C@H]1CO` [Example 67, (R)—N-hydroxy-4-(5-(((1R,2R)-2-(hydroxymethyl)-1-methylcyclopropyl)buta-1,3-diyn-1-yl)-2H-indazol-2-yl)-2-methyl-2-(methylsulfonyl)butanamide], the MIC in assay [1] is 0.125 µg/mL (≈ 0.282 µM); in assay [2] it was 0.125 µg/mL (≈ 0.282 µM); in assay [3], 32 µg/mL (≈ 72.1 µM); in assay [4], 0.25 µg/mL (≈ 0.564 µM).
For `C[C@@](CCn1cc2cc(C#CC#C[C@@H]3C[C@@H](O)[C@@H](O)C3)ccc2n1)(C(=O)NO)S(C)(=O)=O` [Example 64, (R)-4-(5-(((1S,3R,4S)-3,4-dihydroxycyclopentyl)buta-1,3-diyn-1-yl)-2H-indazol-2-yl)-N-hydroxy-2-methyl-2-(methylsulfonyl)butanamide], in assay [1], the “MIC for E. coli ATCC25922” value is 0.125 µg/mL. Besides, in assay [2], the “MIC for K. Pneumoniae A-651” value was 0.5 µg/mL. The “MIC for A. Baumannii T6474” value in assay [3] came to 4 µg/mL. Moreover, the “MIC for P. aeruginosa ATCC27853” value in assay [4] amounted to 0.25 µg/mL.
In the case of `CN(C)C1(c2ccc(C#Cc3ccc4nn(CC[C@](C)(C(=O)NO)S(C)(=O)=O)cc4c3)cc2)COC1.Cc1ccc(S(=O)(=O)O)cc1` [Example 30, (R)-4-{5-[4-(3-dimethylamino-oxetan-3-yl)-phenylethynyl]-indazol-2-yl}-N-hydroxy-2-methylsulfonyl-2-methyl-butanamide toluene-4-sulfonic acid salt], the MIC turned out to be 1 µg/mL in assay [1], 2 µg/mL in assay [2], 2 µg/mL in assay [3] and 4 µg/mL in assay [4].
Take `COc1ccc(-c2cc3cn(CC[C@](C)(C(=O)NO)S(C)(=O)=O)nc3cc2F)c(F)c1` [Example 5, (R)-4-[6-fluoro-5-(2-fluoro-4-methoxy-phenyl)-indazol-2-yl]-N-hydroxy-2-methylsulfonyl-2-methyl-butanamide]: the MIC in assay [1] stood at 0.063 µg/mL (≈ 0.139 µM); in assay [2] it was 0.063 µg/mL (≈ 0.139 µM); in assay [3], 2 µg/mL (≈ 4.41 µM); in assay [4] it was 4 µg/mL (≈ 8.82 µM).
On to `C[C@@](CCn1cc2cc(-c3ccc(C#C[C@H]4C[C@@H]4CO)cc3)ccc2n1)(C(=O)NO)S(C)(=O)=O` (relative stereo) [Example 60, (R)—N-hydroxy-4-(5-(4-(((1S*,2S*)-2-(hydroxymethyl)cyclopropyl)ethynyl)phenyl)-2H-indazol-2-yl)-2-methyl-2-(methylsulfonyl)butanamide], for which the MIC in assay [1] is not above 0.063 µg/mL; in assay [2] it was 0.125 µg/mL (≈ 0.26 µM); in assay [3], not above 0.063 µg/mL; in assay [4], 0.5 µg/mL (≈ 1.04 µM).
On to `CC(C)(N)C(=O)N1CC(C#CC#Cc2ccc3nn(CC[C@](C)(C(=O)NO)S(C)(=O)=O)cc3c2)C1` [Example 85, (R)-4-(5-((1-(2-amino-2-methylpropanoyl)azetidin-3-yl)buta-1,3-diyn-1-yl)-2H-indazol-2-yl)-N-hydroxy-2-methyl-2-(methylsulfonyl)butanamide], for which the MIC in assay [1] is 4 µg/mL (≈ 8.01 µM); in assay [2] it was 8 µg/mL (≈ 16 µM); in assay [3], more than 32 µg/mL; in assay [4] it was 2 µg/mL (≈ 4 µM).
On to `CN(C)c1ccc(-c2ccc3nn(CC[C@](C)(C(=O)NO)S(C)(=O)=O)cc3c2)cc1` [Example 11, (R)-4-[5-(4-dimethylamino-phenyl)-indazol-2-yl]-N-hydroxy-2-methylsulfonyl-2-methyl-butanamide], for which the MIC was found to be 0.063 µg/mL (≈ 0.146 µM) in assay [1], 0.063 µg/mL (≈ 0.146 µM) in assay [2], 2 µg/mL (≈ 4.65 µM) in assay [3] and 8 µg/mL (≈ 18.6 µM) in assay [4].
Take `C[C@@](CCn1cc2cc(-c3ccc(-n4nccn4)cc3)ccc2n1)(C(=O)NO)S(C)(=O)=O` [Example 12, (R)—N-hydroxy-2-methylsulfonyl-2-methyl-4-[5-(4-[1,2,3]triazol-2-yl-phenyl)-indazol-2-yl]-butanamide]: the MIC was determined as 0.063 µg/mL (≈ 0.139 µM) in assay [1], 0.125 µg/mL (≈ 0.275 µM) in assay [2], 1 µg/mL (≈ 2.2 µM) in assay [3] and 2 µg/mL (≈ 4.4 µM) in assay [4].
Turning to `C[C@@](CCn1cc2cc(C#Cc3ccc([C@@H]4C[C@H]4CO)cc3)ccc2n1)(C(=O)NO)S(C)(=O)=O` [Example 41, (R)—N-hydroxy-4-(5-((4-((1R,2R)-2-(hydroxymethyl)cyclopropyl)phenyl)ethynyl)-2H-indazol-2-yl)-2-methyl-2-(methylsulfonyl)butanamide], the MIC came out at 0.125 µg/mL (≈ 0.26 µM) in assay [1], 0.063 µg/mL (≈ 0.131 µM) in assay [2], 0.125 µg/mL (≈ 0.26 µM) in assay [3] and 1 µg/mL (≈ 2.08 µM) in assay [4].
